Results on one molecule are retold here after patent US4119784A, “Anionic substituted sulfonamido biphenyls” (American Cyanamid Company, priority 1977, dated 1978).

SMILES strings stand for the structures. Where a name gives a salt, the structure may show the parent alone.

Format in all cases: biochemical
The subject of one experiment is activated human C1. Nature of the experiment: Test, Code 026 (C1 inhibitor). As to conditions: activity in wells of a two-fold serial dilution assay; higher well number indicates higher activity. From the text: (§1) An active inhibitor protects C2 from C1 and C4; (ii) Test, Code 035 (C3-C9 inhibitor)--This test determines the ability of the late components of human complement (C3-C9) to lyse EAC 142 in the presence of appropriate dilutions of the test compound. An active inhibitor protects EAC 142 from lysis by human C3-C9; (iii) Test, Code 036 (C-Shunt inhibitor)--In this test human erythrocytes rendered fragile are lysed in autologous serum via the shunt pathway activated by cobra venom factor in the presence of appropriate dilutions of the test compound. Inhibition of the shunt pathway results in failure of lysis; (iv) Forssman Vasculitis Test--Here, the well known complement dependent lesion, Forssman vasculitis, is produced in guinea pigs by intradermal injection of rabbit anti-Forssman antiserum. […]

Experiment [1] relates to late components of human complement (C3-C9). As to the kind of experiment: Test, Code 035 (C3-C9 inhibitor). On the set-up: key: N = Negative. The following applies: protection of EAC 142 from lysis by human C3-C9; two-fold serial dilution assay.
Text: as §1

Experiment [2] concerns shunt pathway activated by cobra venom factor. Nature of the experiment: Test, Code 036 (C-Shunt inhibitor). The following applies: human erythrocytes in autologous serum; two-fold serial dilution assay; higher well number indicates higher activity.
Text: as §1

Regarding `O=C(O)c1cc(NS(=O)(=O)c2ccc(-c3ccc(S(=O)(=O)Nc4cc(C(=O)O)cc(C(=O)O)c4)cc3S(=O)(=O)Nc3cc(C(=O)O)cc(C(=O)O)c3)c(S(=O)(=O)Nc3cc(C(=O)O)cc(C(=O)O)c3)c2)cc(C(=O)O)c1` [5,5',5",5'"-[2,2',4,4'-Biphenyltetrayltetrakis(sulfonylimino)[tetraisophthalic acid octasodium salt], the “Cl 026 Wells” value with activated human C1 is given as “+7 Wells”. Further, in experiment [1], the “C-Late 035 Wells” value is given as “N”. The “Shunt Inhibition 036 Wells” value in experiment [2] was “+3 Wells”.
